Experimental data as given in patent publication US9249128B2 (priority 2010, dated 2016).
Read-outs that look alike come from different tables or passages of the source.

Columns and labels:
PC3 and DU145 cells [1] = assay: Serum-free cell survival assay (WST-1); type: cell-based, human; details: 10 μM, 4 h in situ
Procedure: (§1) Inhibitors were dissolved in DMSO and diluted into media or buffer prior to cell or proteome treatment, respectively. For in vitro treatment, final DMSO concentration was 4%. For in situ treatments of cells for ABPP, lipid measurements, migration, cell-survival, and invasion assays, 2×10^6 cells were seeded in 6 cm dishes (˜100% confluency) 24 h prior to inhibitor pre-treatment (in DMSO at 0.1% final concentration) in serum-free media (3 mL) for the designated time before harvesting cells for ABPP or lipid measurements or before the initiation of migration, cell-survival, and invasion assays.
(§2) Cell migration, cell survival, and invasion studies were performed as previously described (Nomura et al., 2010). Briefly, migration assays were performed in Transwell chambers (Corning) with 8 μm pore-sized membranes coated with 10 μg/mL collagen at 37° C. for LNCaP (24 h), PC3 (4 h) and DU145 cells (24 h), respectively. Cell survival assays were performed using the Cell Proliferation Reagent WST-1 (Roche) Invasion assays were conducted using the BD Matrigel Invasion Chambers per the manufacturer's protocol. Inhibitors were preincubated for the stated duration before seeding cells into migration, cell-survival, or invasion chambers. Prior to seeding the cells in these chambers, cells were serum-starved for 4 h. Inhibitors were also present during the migration, cell-survival, and invasion assays.

[2] = tested on: MAGE levels in PC3 and DU145 cells; assay: Lipid (MAGE) measurements in cancer cells; type: cell-based, human; details: 10 μM, 4 h in situ
Procedure: as §1
Lipid measurements were performed in cancer cells as previously described (Chiang et al., 2006). Briefly, frozen cell pellets from cells harvested after 4 h serum starvation were extracted in 2:1:1 chloroform:methanol:Tris buffer pH 8.0 by dounce homogenization with 10 nmol of internal standard C12 MAGE. The organic layer was removed, dried under N2, and resuspended in 120 μL of chloroform, and 30 μL was injected into an Agilent 1100-MSD LC-MS. MAGE levels were quantified by measuring the area under the peak and were normalized to the C12 MAGE internal standard.

PC3 and DU145 cells [3] = assay: Invasion assay (Matrigel chambers); type: cell-based, human; details: 10 μM, 4 h in situ
Procedure: as §1, §2

KIAA1363 = target: T1, KIAA1363 (Mus musculus, UniProt Q8BLF1); assay: Gel-based competitive ABPP of KIAA1363 in mouse brain membrane proteome (FP-rhodamine); type: biochemical
T1 construct: ABPP analysis of KIAA1363 activity in mouse brain membrane proteome; from tissue; host or cells: mouse brain (membrane fraction)
T1 sequence (Q8BLF1 1-408): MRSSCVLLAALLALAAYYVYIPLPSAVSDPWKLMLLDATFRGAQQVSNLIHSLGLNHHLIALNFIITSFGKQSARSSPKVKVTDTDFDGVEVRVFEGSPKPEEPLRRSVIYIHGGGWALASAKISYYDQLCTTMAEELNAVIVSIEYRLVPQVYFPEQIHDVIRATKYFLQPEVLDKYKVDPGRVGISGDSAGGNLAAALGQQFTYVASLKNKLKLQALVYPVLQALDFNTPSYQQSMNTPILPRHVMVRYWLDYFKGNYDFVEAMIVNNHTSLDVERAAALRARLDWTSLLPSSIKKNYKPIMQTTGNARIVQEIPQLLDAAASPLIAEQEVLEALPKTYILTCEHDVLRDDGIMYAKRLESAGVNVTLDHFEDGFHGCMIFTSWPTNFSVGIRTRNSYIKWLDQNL
Procedure: In various embodiments, the invention provides a method of inhibiting a serine hydrolase, comprising contacting the hydrolase with a compound of formula (I), e.g., a compound selected from set of compounds shown in Table 1, below. […] IC50 values were derived from ABPP analysis of KIAA1363 activity in mouse brain membrane proteome and are averages of three replicates. Inhibitors were added to the proteome for 30 min before addition of FP-rhodamine (1 μM, 30 min).
Tissues were Dounce-homogenized in PBS, pH 7.4, followed by a low-speed spin (1,400 g, 5 min) to remove debris. The supernatant was then subjected to centrifugation (100,000×g, 45 min) to provide the cytosolic fraction in the supernatant and the unsoluble fraction as a pellet. The pellet was washed and resuspended in PBS buffer by sonication. Total protein concentration in each fraction was determined using a protein assay kit (Bio-Rad). Samples were stored at −80° C. until use.
For ABPP experiments, cell lysate and tissue proteomes were treated with 1 μM FP-rhodamine for 30 min at room temperature (50 μL total reaction volume) as described previously (Nomura et al., 2010). Reactions were quenched with one volume of standard 4×SDS/PAGE loading buffer (reducing), separated by SDS/PAGE (10% acrylamide), and visualized in-gel with a Hitachi FMBio IIe flatbed fluorescence scanner (MiraiBio). Inhibitors were preincubated prior (30 min or 4 h at 37° C. in vitro or in situ, respectively) to the addition of FP-rhodamine.

AChE = target: T2, AChE (Mus musculus, UniProt P21836); assay: AChE activity assay with acetylthiocholine in mouse brain proteome; type: biochemical; details: acetylthiocholine hydrolysis in mouse brain membrane proteome
T2 construct: 20 μg of cell lysate or mouse brain membrane proteome; from tissue; host or cells: mouse brain (membrane proteome)
T2 sequence (P21836 32-614): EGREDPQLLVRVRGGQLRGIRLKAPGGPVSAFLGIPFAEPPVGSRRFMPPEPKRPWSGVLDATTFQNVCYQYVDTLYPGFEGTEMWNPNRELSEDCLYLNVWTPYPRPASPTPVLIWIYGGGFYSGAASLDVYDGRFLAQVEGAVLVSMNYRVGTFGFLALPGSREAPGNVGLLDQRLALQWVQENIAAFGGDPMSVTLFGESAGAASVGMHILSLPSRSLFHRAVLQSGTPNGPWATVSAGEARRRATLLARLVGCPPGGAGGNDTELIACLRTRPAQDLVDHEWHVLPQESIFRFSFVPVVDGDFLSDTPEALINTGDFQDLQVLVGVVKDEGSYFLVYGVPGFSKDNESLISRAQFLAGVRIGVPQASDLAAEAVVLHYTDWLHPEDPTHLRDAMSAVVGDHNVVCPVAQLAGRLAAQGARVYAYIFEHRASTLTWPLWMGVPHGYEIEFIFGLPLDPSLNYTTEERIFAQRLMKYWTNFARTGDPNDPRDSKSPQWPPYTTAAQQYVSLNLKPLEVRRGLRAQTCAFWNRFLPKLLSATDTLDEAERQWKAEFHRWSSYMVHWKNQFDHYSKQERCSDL
Procedure: AChE activity was measured using a method similar to that described previously (Ellman et al., 1961). Briefly, 50 μL of 10 mM acetylthiocholine was added to 200 μL of PBS containing 2 mM DTNB and 20 μg of cell lysate or mouse brain membrane proteome. Absorbance was measured at 412 nm over 5 min, and the rate of product accumulation was calculated from the slope of the absorbance over time. For assays involving preincubation with inhibitors, the reactions were prepared without acetylthiocholine and JW480 was incubated at the indicated concentration for 30 min at 37° C. Acetylthiocholine was then added and the assay was carried out exactly as described above.

[4] = mouse brain membrane proteome, inhibitor 30 min before FP-rhodamine (1 μM, 30 min), averages of three replicates, read-out: IC50 (KIAA1363)
[5] = screened against KIAA1363, Table 1, read-out: IC50 values of around 10 nanomolar (most potent)
[6] = screened against KIAA1363, Table 1, read-out: IC50 values of less than 1 micromolar

CCCCOC[C@H]1CCCC[C@H]1COCCNC(=O)Oc1ccccc1F [AS115, reference compound]
PC3 and DU145 serum-free cell survival (PC3 and DU145 cells [1]): impair
MAGE levels [2]: lower MAGE levels
PC3 and DU145 invasion (PC3 and DU145 cells [3]): impair

CC(C)c1ccccc1OC(=O)NCCc1ccc(F)cc1 [JW464, 2-isopropylphenyl 4-fluorophenethylcarbamate]
IC50 (KIAA1363; [4]): 11.3 nM
IC50 (KIAA1363; [5]): ~10 nM
Cross-reactivity with AChE (AChE): cross-reactivity

CCOc1ccccc1OC(=O)NCc1ccc(OC)cc1 [JW388, 2-ethoxyphenyl 4-methoxybenzylcarbamate]
IC50 (KIAA1363; [4]): 1610 nM

CCOc1ccccc1OC(=O)NCCc1cccs1
IC50 (KIAA1363; [4]): > 10000 nM

CCOc1ccccc1OC(=O)NCc1ccc(-c2ccccc2)cc1
IC50 (KIAA1363; [4]): > 50000 nM

O=C(NCCC(c1ccccc1)c1ccccc1)Oc1ccc(-n2cccc2)cc1 [JW433, 4-(1H-pyrrol-1-yl)phenyl (3,3-diphenylpropyl)carbamate]
IC50 (KIAA1363; [4]): > 50000 nM

O=C(NCCc1ccc(F)cc1)Oc1ccc(-c2ccccc2)cc1 [JW473, [1,1′-biphenyl]-4-yl 4-fluorophenethylcarbamate]
IC50 (KIAA1363; [4]): 955 nM
IC50 (KIAA1363; [6]): < 1000 nM

CCOc1ccccc1OC(=O)NCCN1CCOCC1 [JW429, 2-ethoxyphenyl (2-morpholinoethyl)carbamate]
IC50 (KIAA1363): > 50000 nM

O=C(NCCc1ccc(Br)cc1)Oc1ccc(-n2cccc2)cc1 [JW412, 4-(1H-pyrrol-1-yl)phenyl 4-bromophenethylcarbamate]
IC50 (KIAA1363; [4]): 1660 nM

COc1ccc(CCNC(=O)Oc2ccc(-n3cccc3)cc2)cc1 [JW431, 4-(1H-pyrrol-1-yl)phenyl 4-methoxyphenethylcarbamate]
IC50 (KIAA1363; [4]): 1290 nM

CC1(C)Cc2cccc(OC(=O)NCc3ccc(I)cc3)c2O1 [JW147, 2,2-dimethyl-2,3-dihydrobenzofuran-7-yl 4-iodobenzylcarbamate]
IC50 (KIAA1363; [4]): 148 nM
IC50 (KIAA1363; [6]): < 1000 nM

COc1ccc(CCNC(=O)Oc2c(C)ccc3ccccc23)cc1 [JW436, 2-methylnaphthalen-1-yl 4-methoxyphenethylcarbamate]
IC50 (KIAA1363; [4]): 3000 nM

CCOc1ccccc1OC(=O)NCCC(c1ccccc1)c1ccccc1 [JW443, 2-ethoxyphenyl (3,3-diphenylpropyl)carbamate]
IC50 (KIAA1363; [4]): 1830 nM

O=C(NCc1ccc(C(F)(F)F)cc1)Oc1ccc(-n2cccc2)cc1 [JW383, 4-(1H-pyrrol-1-yl)phenyl 4-(trifluoromethyl)benzylcarbamate]
IC50 (KIAA1363; [4]): 997 nM
IC50 (KIAA1363; [6]): < 1000 nM

CC(C)c1ccccc1OC(=O)NCCc1ccc2c(c1)OCO2 [JW481, 2-isopropylphenyl (2-(benzo[d][1,3]dioxol-5-yl)ethyl)carbamate]
IC50 (KIAA1363; [4]): 11.3 nM
IC50 (KIAA1363; [5]): ~10 nM

O=C(NCCc1ccc(F)cc1)Oc1ccc(C2CCCC2)cc1 [JW474, 4-cyclopentylphenyl 4-fluorophenethylcarbamate]
IC50 (KIAA1363; [4]): 795 nM

CCOc1ccccc1OC(=O)NCc1ccc(C(F)(F)F)cc1 [JW387, 2-ethoxyphenyl 4-(trifluoromethyl)benzylcarbamate]
IC50 (KIAA1363; [4]): 2820 nM

Cc1ccc2ccccc2c1OC(=O)NCC(c1ccccc1)c1ccccc1 [JW439, 2-methylnaphthalen-1-yl (2,2-diphenylethyl)carbamate]
IC50 (KIAA1363; [4]): > 50000 nM

COc1ccc(CNC(=O)Oc2c(C)ccc3ccccc23)cc1 [JW386, 2-methylnaphthalen-1-yl 4-methoxybenzylcarbamate]
IC50 (KIAA1363; [4]): > 10000 nM

O=C(NCCc1ccc(C(F)(F)F)cc1)Oc1ccc(-n2cccc2)cc1 [JW446, 4-(1H-pyrrol-1-yl)phenyl 4-(trifluoromethyl)phenethylcarbamate]
IC50 (KIAA1363; [4]): > 50000 nM

CCOc1ccccc1OC(=O)NCCc1ccc(OC)cc1 [JW441, 2-ethoxyphenyl 4-methoxyphenethylcarbamate]
IC50 (KIAA1363; [4]): > 10000 nM

COc1ccc(OC(=O)NCCc2ccc(F)cc2)c2ccccc12 [JW465, 4-methoxynaphthalen-1-yl 4-fluorophenethylcarbamate]
IC50 (KIAA1363; [4]): > 50000 nM

CCOc1ccccc1OC(=O)NCCc1cc2ccccc2[nH]1 [JW430, 2-ethoxyphenyl (2-(1H-indol-2-yl)ethyl)carbamate]
IC50 (KIAA1363; [4]): > 50000 nM

Cc1ccc2ccccc2c1OC(=O)NCCc1ccc(Br)cc1 [JW415, 2-methylnaphthalen-1-yl 4-bromophenethylcarbamate]
IC50 (KIAA1363; [4]): 1080 nM

CCOc1ccccc1OC(=O)NCCc1ccc2c(c1)OCO2 [JW420, 2-ethoxyphenyl (2-(benzo[d][1,3]dioxol-5-yl)ethyl)carbamate]
IC50 (KIAA1363; [4]): 1340 nM

O=C(NCc1ccc(Cl)cc1)Oc1ccc(-n2cccc2)cc1 [JW392, 4-(1H-pyrrol-1-yl)phenyl 4-chlorobenzylcarbamate]
IC50 (KIAA1363; [4]): 385 nM
IC50 (KIAA1363; [6]): < 1000 nM
